Test results from PMC6191541, “Small-Molecule Acetylation Controls the Degradation of Benzoate and Photosynthesis in Rhodopseudomonas palustris” (mBio, 2018).

Experiments:
BadM = biological target: T1, BadM (Rhodopseudomonas palustris, UniProt O07465); experiment: EMSA with 6-FAM-labelled badDEFGAB promoter probe; settings: 72 nM BadM, 12 nM probe; 10 mM compound, blocks DNA binding; no effect at 5 mM
T1 construct: plasmid pRpBadM8, expressed in E. coli C41(lambda-DE3) pka12::kan+, purified; tag details in Text S1

[1] = biological target: T2, BadM (Rhodopseudomonas palustris) (UniProt O07465); experiment: EMSA; settings: 25 µL; Tris 20 mM pH 7.5 (at 25°C), KCl 50 mM, DTT 1 mM, glycerol (rest of buffer not in the material); probe 12 nM (0.303 pmol), BadM 72 nM (1.8 pmol) …
T2 sequence: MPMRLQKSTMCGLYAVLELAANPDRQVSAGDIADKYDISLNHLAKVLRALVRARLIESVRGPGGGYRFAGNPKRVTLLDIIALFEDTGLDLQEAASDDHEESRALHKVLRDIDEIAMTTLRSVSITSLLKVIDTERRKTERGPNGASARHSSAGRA

MmBadL = biological target: T3, MmBadL (Paramagnetospirillum magneticum, UniProt Q2W1S9); experiment: [[…]-14C]acetyl-CoA transfer, TLC phosphor imaging; format: biochemical; settings: co-substrate acetyl-CoA
T3 construct: gene amb3392; plasmid pMmBadL2, expressed in E. coli C41(lambda-DE3) pka12::kan+, purified; tag details in Text S1

GmBadL = biological target: T4, GmBadL (Geobacter metallireducens, UniProt Q39TU9); experiment: [[…]-14C]acetyl-CoA transfer, TLC phosphor imaging; format: biochemical; settings: co-substrate acetyl-CoA
T4 construct: gene Gmet_2096; plasmid pGmBadL1, expressed in E. coli C41(lambda-DE3) pka12::kan+, purified; tag details in Text S1
T4 sequence (Q39TU9 entry or part of it): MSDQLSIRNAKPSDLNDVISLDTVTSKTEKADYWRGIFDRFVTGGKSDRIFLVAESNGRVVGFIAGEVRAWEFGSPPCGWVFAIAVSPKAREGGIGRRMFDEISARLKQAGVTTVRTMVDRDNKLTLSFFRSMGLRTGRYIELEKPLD

T3 sequence (Q2W1S9 entry or part of it): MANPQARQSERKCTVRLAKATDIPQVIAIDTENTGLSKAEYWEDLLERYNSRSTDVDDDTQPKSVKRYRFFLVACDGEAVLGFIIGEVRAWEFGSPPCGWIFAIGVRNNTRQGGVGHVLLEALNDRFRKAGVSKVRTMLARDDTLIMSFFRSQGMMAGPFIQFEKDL

CC(=O)Nc1ccccc1C(=O)O [2-ABA^Ac, 2-acetamidobenzoate]
EMSA with 6-FAM-labelled badDEFGAB promoter probe (BadM): addition of 2-acetamidobenzoate blocked binding of BadM to its DNA target

GTGATGCGGCCTGTCGAGCATGCCGGTCGTCCTCCCTGCCCGGCGGCTCTGCCGGGTCGCGCTGCCGGCCATTTTCCGGCCCAGCGATTTAAATGTAATCTAGTATCGGAATGCGATAATTAATTTGATGCGGATCAAATTTGGCAAAGGCACAGCCGACACGGGCCGACGCCGGCTCGTAGTCGGGAGGCTCAGATATCGATCGCGATCTT (double strand) [badDEFGAB promoter / badCD intergenic probe]
binding [1]: binds

Nc1ccc(C(=O)O)cc1 [4-ABA, 4-aminobenzoate]
[1-14C]acetyl-CoA transfer, TLC phosphor imaging (MmBadL): MmBadL and GmBadL acetylated 4-aminobenzoate producing 4-acetamidobenzoate | [1-14C]acetyl-CoA transfer, TLC phosphor imaging (GmBadL): MmBadL and GmBadL acetylated 4-aminobenzoate producing 4-acetamidobenzoate
